One may read the EC50 as the midpoint of the concentration-response curve.

Results on 2 molecules are retold here after patent publication US20050070460A1 (priority 2003, published 2005).

A short description of data set [1]: in vitro. To be noted: African green monkey.
Data set [2] relates to Influenza A/Panama/2007/99 (H3N2).
Data set [3] has as its system Human coronavirus (HcoV), strain OC43.
For data set [4] the test system is unchanged. The data set is described as follows: microbe, parasite or virus in culture. Particulars: unidentified human coronavirus, OC43, BSC-1.
The test system of data set [5] is Severe acute respiratory syndrome (SARS) coronavirus, strain Urbani.
Data set [6] can be described thus: in vitro. Particulars: dog.
The next data set relates to MDCK cells. To be noted: Influenza A (H1N1) test.
Data set [7] relates to Influenza A/New Calcdonia/20/99 (H1N1). In words: microbe, parasite or virus in culture. To be noted: H1N1, MDCK.
Data set [8] deals with Severe acute respiratory syndrome (SARS) coronavirus, strain Urbani. The data set is described as follows: microbe, parasite or virus in culture. To be noted: Severe acute respiratory syndrome-related coronavirus, Vero 76, SARS, Vero 76 cells; PBMC supernatant = indirect, IRM in media = direct.
Data set [9] has as its system humanized, non-lethal influenza virus. In words: Viral titers in rats after intranasal pre-infection treatment and influenza challenge. Type of data set: in vivo, Fisher 344 rats. Particulars: intranasal administration prior to infection, 24 hours after the infection, compared also to IFN-α pretreatment.
The subject of data set [10] is Influenza A/New Calcdonia/20/99 (H1N1).
Data set [11] relates to Influenza A/Panama/2007/99 (H3N2). In words: microbe, parasite or virus in culture. Particulars: H3N2, MDCK.

As for `CCOCc1nc2c(N)nc3ccccc3c2n1CC(C)(C)NS(C)(=O)=O` [IRM, N-{2-[4-amino-2-(ethoxymethyl)-1H-imidazo[4,5-c]quinolin-1-yl]-1,1-dimethylethyl}methanesulfonamide], the results for the CC50 in the data set “in vitro [1]”, in the data set “in vitro [6]” and in the data set on MDCK cells were greater than 150 µM, greater than 300 µM and greater than 300 µM, respectively. Moreover, the “SI (CC50/EC50)” value in [2] is recorded as 0; in data set [3] it was 0; in data set [5], 50; in data set [10] it was 0. The EC50 in data set [4] is greater than 150 µM; in data set [7] it was greater than 300 µM; in data set [8], roughly 3 µM; in [11], greater than 300 µM. The “antiviral activity (in words)” value in data set [5] is on record as “significant direct activity”. Besides, the “viral titer present in the lung” value in data set [9] is “dramatically reduced”. In data set [9], the “viral titer present in the nasal cavity” value is “dramatically reduced”.

As to `NC(=O)c1ncn([C@@H]2O[C@H](CO)[C@@H](O)[C@H]2O)n1` [Ribavirin, ribavirin, reference compound], the figures for the “SI (CC50/EC50)” value in data set [2] and in data set [10] were greater than 19 and greater than 32, respectively. The CC50 in the data set “in vitro [6]” and in the data set with MDCK cells was greater than 450 µM in each case. Also, the EC50 in [7] was 14 µM; in data set [11] it was 24 µM.
